First: O=C(O)CCc1cnoc1-c1ccc(Cl)c(Br)c1 [Example 6, 3-[5-(3-bromo-4-chlorophenyl)-4-isoxazolyl]propionic acid]
Second: O=C(O)CCc1cnoc1-c1ccc(Cl)c(F)c1 [Example 108, 3-[5-(4-chloro-3-fluorophenyl)-4-isoxazolyl]propionic acid]
The melting point of the first is higher: 177 to 180 °C for the first, 139 to 140 °C for the second.

First: CCOP(=O)(Cc1ccc(NC(=O)CCc2cnoc2-c2ccc(F)cc2)cc1)OCC
Second: CCOP(=O)(O)Cc1ccc(NC(=O)CCc2cnoc2-c2ccccc2)cc1
The melting point of the first is higher: 134 to 135 °C for the first, 80 to 82 °C for the second.

First: O=C(O)CCc1conc1-c1ccc(Cl)cc1 [Example 5, 3-[3-(4-chlorophenyl)-4-isoxazolyl]propionic acid]
Second: NC(=O)CCc1conc1-c1ccc(Cl)cc1 [Example 18, 3-[3-(4-chlorophenyl)-4-isoxazolyl]propionamide]
The melting point of the first is lower: 149 to 150 °C for the first, 158 to 159 °C for the second.

First: O=C(O)CCc1cnoc1-c1ccccc1 [Example 7, 3-(5-phenyl-4-isoxazolyl)propionic acid]
Second: NC(=O)CCc1cnoc1-c1ccccc1 [Example 22, 3-(5-phenyl-4-isoxazolyl)propionamide]
The melting point of the first is lower: 90 to 91 °C for the first, 151 to 152 °C for the second.

First: COC(=O)CCc1cnoc1-c1ccc(Cl)s1 [Example 65, methyl 3-[5-(5-chloro-2-thienyl)-4-isoxazolyl]propionate]
Second: COC(=O)CCc1cnoc1-c1cc(Cl)c(Cl)s1 [Example 124, methyl 3-[5-(4,5-dichloro-2-thienyl)-4-isoxazolyl]propionate]
The melting point of the first is lower: 34 to 35 °C for the first, 49 to 50 °C for the second.

First: O=C(O)CCc1conc1-c1ccc(Cl)c(Cl)c1 [Example 111, 3-[3-(3,4-dichlorophenyl)-4-isoxazolyl]propionic acid]
Second: O=C(O)CCc1conc1-c1ccc(Cl)c(F)c1 [Example 117, 3-[3-(4-chloro-3-fluorophenyl)-4-isoxazolyl]propionic acid]
The melting point of the first is higher: 181 to 182 °C for the first, 148 to 149 °C for the second.

Compared with O=C(O)CCc1c(-c2ccccc2)noc1O [Example 143, 3-[5-hydroxy-3-phenyl-4-isoxazolyl]propionic acid], Cc1onc(-c2ccccc2Cl)c1CCC(=O)O [Example 147, 3-[3-(2-chlorophenyl)-5-methyl-4-isoxazolyl]propionic acid] is lower in melting point: 183 to 184 °C for the first, 79 to 81 °C for the second.

Compared with COC(=O)CCc1cnoc1-c1ccc(C(F)(F)F)cc1 [Example 60, methyl 3-[5-(4-trifluoromethylphenyl)-4-isoxazolyl]propionate], Cc1ccc(-c2oncc2CCC(=O)O)cc1 [Example 12, 3-[5-(4-methylphenyl)-4-isoxazolyl]propionic acid] is higher in melting point: 68 to 69 °C for the first, 121 to 122 °C for the second.

First: O=C(O)CCc1cnoc1-c1ccc(-c2ccccc2)cc1 [Example 131, 3-[5-(4-phenylphenyl)-4-isoxazolyl]propionic acid]
Second: O=C(O)CCc1conc1-c1ccc(-c2ccccc2)cc1 [Example 57, 3-[3-(4-phenylphenyl)-4-isoxazolyl]propionic acid]
The melting point of the first is lower: 94 to 95 °C for the first, 169 to 170 °C for the second.

Compared with Cc1onc(-c2ccc(Cl)cc2)c1CCC(=O)O [Example 141, 3-[3-(4-chlorophenyl)-5-methyl-4-isoxazolyl]propionic acid], CCc1onc(-c2ccc(Cl)cc2)c1CCC(=O)O [Example 142, 3-[3-(4-chlorophenyl)-5-ethyl-4-isoxazolyl]propionic acid] is lower in melting point: 187 to 188 °C for the first, 164 to 165 °C for the second.

First: CCNC(=O)/C=C/c1cnoc1-c1ccccc1 [Example 27, (E)-N-ethyl-3-(5-phenyl-4-isoxazolyl)propenamide]
Second: NC(=O)/C=C/c1cnoc1-c1ccccc1 [Example 25, (E)-3-(5-phenyl-4-isoxazolyl)propenamide]
The melting point of the first is lower: 156 to 157 °C for the first, 194 to 196 °C for the second.

Compared with CS(=O)(=O)c1ccc(-c2oncc2CCCO)cc1 [Example 106, 3-[5-(4-methylsulfonylphenyl)-4-isoxazolyl]propan-1-ol], C[S+]([O-])c1ccc(-c2oncc2CCCO)cc1 (stereo not shown) [Example 107, 3-[5-(4-methylsulfinylphenyl)-4-isoxazolyl]propan-1-ol] is lower in melting point: 125 to 126 °C for the first, 73 to 74 °C for the second.

First: O=C(O)CCc1conc1-c1ccc(F)c(Br)c1 [Example 125, 3-[3-(3-bromo-4-fluorophenyl)-4-isoxazolyl]propionic acid]
Second: O=C(O)CCc1conc1-c1ccc(F)c(Cl)c1 [Example 114, 3-[3-(3-chloro-4-fluorophenyl)-4-isoxazolyl]propionic acid]
The melting point of the first is higher: 151 to 152 °C for the first, 140 to 141 °C for the second.

First: O=C(O)CCc1conc1-c1ccc(C(F)(F)F)cc1 [Example 140, 3-[3-(4-trifluoromethylphenyl)-4-isoxazolyl]propionic acid]
Second: Cc1onc(-c2ccc(C(F)(F)F)cc2)c1CCC(=O)O [Example 144, 3-[5-methyl-3-(4-trifluoromethylphenyl)-4-isoxazolyl]propionic acid]
The melting point of the first is higher: 173 to 174 °C for the first, 138 to 139 °C for the second.

Compared with COc1ccc(-c2oncc2CCC(=O)O)cc1OC [Example 100, 3-[5-(3,4-dimethoxyphenyl)-4-isoxazolyl]propionic acid], Cc1cc(-c2oncc2CCC(=O)O)ccc1Cl [Example 95, 3-[5-(4-chloro-3-methylphenyl)-4-isoxazolyl]propionic acid] is lower in melting point: 169 to 170 °C for the first, 158 to 159 °C for the second.

Compared with CSc1ccc(-c2oncc2CCC(=O)O)cc1 [Example 103, 3-[5-(4-methylthiophenyl)-4-isoxazolyl]propionic acid], CSc1ccc(-c2oncc2CCCO)cc1 [Example 105, 3-[5-(4-methylthiophenyl)-4-isoxazolyl]propan-1-ol] is lower in melting point: 124 to 125 °C for the first, 54 to 55 °C for the second.

First: COC(=O)CCc1cnoc1-c1ccc(F)cc1F [Example 61, methyl 3-[5-(2,4-difluorophenyl)-4-isoxazolyl]propionate]
Second: O=C(O)CCc1cnoc1-c1ccc(F)cc1F [Example 59, 3-[5-(2,4-difluorophenyl)-4-isoxazolyl]propionic acid]
The melting point of the first is lower: 40 to 41 °C for the first, 125 to 126 °C for the second.

Compared with O=C(O)CCc1cnoc1-c1ccc2c(c1)OCO2 [Example 89, 3-[5-(1,3-benzodioxol-5-yl)-4-isoxazolyl]propionic acid], O=C(O)CCc1cnoc1-c1ccc(F)c(Br)c1 [Example 128, 3-[5-(3-bromo-4-fluorophenyl)-4-isoxazolyl]propionic acid] is lower in melting point: 150 to 151 °C for the first, 136 to 137 °C for the second.

First: O=C(CCc1cnoc1-c1ccccc1)Nc1ccc(CP(=O)(O)O)cc1 [Example 413 (byproduct), 3-(5-Phenyl-4-isoxazolyl)-N-[4-(phosphonomethyl)phenyl]propionamide]
Second: CCNC(=O)CCc1cnoc1-c1ccccc1 [Example 23, N-ethyl-3-(5-phenyl-4-isoxazolyl)propionamide]
The melting point of the first is higher: 162 to 164 °C for the first, 75 to 76 °C for the second.

First: O=C(O)/C=C/c1cnoc1-c1ccccc1 [Example 24, (E)-3-(5-phenyl-4-isoxazolyl)propenoic acid]
Second: O=C(O)CCc1cnoc1-c1cc(Cl)ccc1Cl [Example 98, 3-[5-(2,5-dichlorophenyl)-4-isoxazolyl]propionic acid]
The melting point of the first is higher: 197 to 199 °C for the first, 103 to 104 °C for the second.

From patent US7022725B2, “Isoxazole derivatives” (Takeda Pharmaceutical Company Limited, priority 2000, dated 2006)
